Drawing on patent publication US8916565B2, “Pyrrolopyrazine-spirocyclic piperidine amides as modulators of ion channels” (priority 2011, dated 2014), this text covers IC50 for 67 molecules.

Sequence of human NaV subtype, like NaV 1.7 (Q15858 whole entry): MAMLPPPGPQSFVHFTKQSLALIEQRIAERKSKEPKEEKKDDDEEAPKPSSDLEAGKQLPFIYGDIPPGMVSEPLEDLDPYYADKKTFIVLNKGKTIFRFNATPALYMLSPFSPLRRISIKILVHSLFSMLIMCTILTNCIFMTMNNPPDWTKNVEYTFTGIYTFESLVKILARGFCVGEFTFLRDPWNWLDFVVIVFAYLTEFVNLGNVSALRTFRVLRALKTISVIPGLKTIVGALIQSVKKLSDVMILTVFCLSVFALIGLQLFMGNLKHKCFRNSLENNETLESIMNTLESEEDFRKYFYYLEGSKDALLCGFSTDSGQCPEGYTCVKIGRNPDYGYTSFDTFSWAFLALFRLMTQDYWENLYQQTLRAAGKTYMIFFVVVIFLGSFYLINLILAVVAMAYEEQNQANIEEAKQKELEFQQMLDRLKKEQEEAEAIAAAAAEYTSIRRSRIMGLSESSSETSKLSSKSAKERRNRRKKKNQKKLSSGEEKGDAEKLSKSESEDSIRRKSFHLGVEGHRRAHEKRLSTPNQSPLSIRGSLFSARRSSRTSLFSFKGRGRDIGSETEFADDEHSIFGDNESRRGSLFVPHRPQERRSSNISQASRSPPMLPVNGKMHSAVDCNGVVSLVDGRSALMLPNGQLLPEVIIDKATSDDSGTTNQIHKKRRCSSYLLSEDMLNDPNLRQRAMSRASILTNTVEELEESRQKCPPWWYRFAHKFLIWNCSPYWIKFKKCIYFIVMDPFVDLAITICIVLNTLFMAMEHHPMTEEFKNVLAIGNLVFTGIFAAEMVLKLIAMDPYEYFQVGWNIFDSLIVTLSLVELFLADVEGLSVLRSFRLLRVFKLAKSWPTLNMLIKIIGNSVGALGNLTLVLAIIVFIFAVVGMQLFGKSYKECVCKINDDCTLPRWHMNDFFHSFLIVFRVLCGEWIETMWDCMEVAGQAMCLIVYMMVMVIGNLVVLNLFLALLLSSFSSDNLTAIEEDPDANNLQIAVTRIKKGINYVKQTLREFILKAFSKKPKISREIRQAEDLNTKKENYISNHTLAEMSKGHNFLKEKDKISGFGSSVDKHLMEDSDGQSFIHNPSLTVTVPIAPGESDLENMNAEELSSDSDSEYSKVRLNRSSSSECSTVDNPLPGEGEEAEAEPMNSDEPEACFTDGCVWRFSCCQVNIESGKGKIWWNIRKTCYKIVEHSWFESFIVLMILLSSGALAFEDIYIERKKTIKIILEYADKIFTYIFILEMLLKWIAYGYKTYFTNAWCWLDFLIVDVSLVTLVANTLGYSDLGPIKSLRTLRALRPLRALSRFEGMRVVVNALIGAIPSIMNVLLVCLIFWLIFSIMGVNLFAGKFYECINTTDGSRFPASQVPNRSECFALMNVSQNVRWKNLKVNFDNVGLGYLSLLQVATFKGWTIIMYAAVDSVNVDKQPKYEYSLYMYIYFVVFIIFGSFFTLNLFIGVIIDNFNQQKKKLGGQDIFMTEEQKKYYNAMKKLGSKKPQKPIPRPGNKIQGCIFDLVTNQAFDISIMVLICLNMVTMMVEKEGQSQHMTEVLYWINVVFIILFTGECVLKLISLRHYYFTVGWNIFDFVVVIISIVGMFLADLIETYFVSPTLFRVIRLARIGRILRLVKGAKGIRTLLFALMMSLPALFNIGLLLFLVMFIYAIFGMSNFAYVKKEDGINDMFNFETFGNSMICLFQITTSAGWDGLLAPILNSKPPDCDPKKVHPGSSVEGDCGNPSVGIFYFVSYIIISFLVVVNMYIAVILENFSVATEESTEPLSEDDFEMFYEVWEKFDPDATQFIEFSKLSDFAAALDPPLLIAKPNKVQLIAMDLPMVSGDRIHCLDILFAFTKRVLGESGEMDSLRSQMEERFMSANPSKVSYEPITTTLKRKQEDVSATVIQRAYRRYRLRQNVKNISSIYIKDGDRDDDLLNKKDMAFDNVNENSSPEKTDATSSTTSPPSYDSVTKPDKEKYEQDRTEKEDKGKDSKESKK

The assay concerns the target human NaV subtype, like NaV 1.7 (Homo sapiens, UniProt Q15858). As to the kind of experiment: E-VIPR optical membrane potential assay with electrical stimulation. In kind it is cell-based. The conditions noted are these: active against one or more sodium channels; Table 3 does not name the assay or NaV subtype; read-out: Binned Activity Data (IC50).
In the case of `CN1CCn2c(ccc2C(F)(F)C(F)(F)F)C12CCN(C(=O)c1ccc(C(C)(C)O)c(F)c1)CC2` [Compound 253], the IC50 – broadly, the concentration needed to halve the response being measured – was at most 2000 nM. As to `CC1(C)Cn2c(C(=O)C(F)(F)F)ccc2C2(CCN(C(=O)c3ccc(C(C)(C)O)c(F)c3)CC2)N1` [Compound 254], the IC50 was at most 2000 nM. Next, `COc1ccc(C(=O)N2CCC3(CC2)c2c(F)cc(C(F)(F)F)n2CCN3C)cc1C(F)(F)F` [Compound 255]: at most 2000 nM; `Cc1cc(C(=O)N2CCC3(CC2)NC(C)(C)Cn2cc(F)c(F)c23)ccc1OC(C)C` [Compound 256]: over 5000 nM; `CN1CCn2c(C(F)(F)F)ccc2C12CCN(C(=O)c1ccc(S(=O)(=O)C3CC3)cc1)CC2` [Compound 257]: at most 2000 nM. As for `COc1cc(C(=O)N2CCC3(CC2)c2c(Cl)cc(C(F)(F)F)n2CCN3C)ccc1OCC(C)(C)F` [Compound 258], the IC50 was at most 2000 nM.

Turning to `COC(=O)N1CCn2c(C(F)(F)F)ccc2C12CCN(C(=O)c1ccc(OC(C)C)c(OC)c1)CC2` [Compound 259], the IC50 was at most 2000 nM. Next, `CC(=O)c1ccc2n1CCN(C)C21CCN(C(=O)c2ccc(Cc3ccccc3)cc2)CC1` [Compound 260]: 2000 to 5000 nM; `Cc1nc(C(=O)N2CCC3(CC2)c2c(Cl)cc(C(F)(F)F)n2CCN3C)ccc1OC(C)C` [Compound 261]: at most 2000 nM; `Cc1cc(C(=O)N2CCC3(CC2)c2c(F)cc(C(F)(F)F)n2CCN3C)ccc1C(C)(C)O` [Compound 262]: at most 2000 nM. As for `Cc1cc(C(=O)N2CCC3(CC2)c2ccc(C(F)(F)F)n2CCN3C)ccc1OCC(C)(C)O` [Compound 263], the IC50 was at most 2000 nM. Next, `COc1c(F)cccc1C(=O)N1CCC2(CC1)c1ccc(C(=O)C(F)(F)F)n1C[C@H](C)N2C` [Compound 264]: at most 2000 nM; `Cc1cc(C(=O)N2CCC3(CC2)NCCn2c(C(F)(F)F)ccc23)ccc1S(=O)(=O)N(C)C` [Compound 265]: at most 2000 nM. Consider `Cc1cc(C(=O)N2CCC3(CC2)c2ccc(C(=O)C(F)(F)F)n2CCN3C)ccc1C(C)(C)O` [Compound 266], for which the IC50 was at most 2000 nM. Next, `CN1CCn2c(C(=O)C3(C)CC3)ccc2C12CCN(C(=O)c1ccc(C(C)(C)O)cc1)CC2` [Compound 267]: 2000 to 5000 nM; `CC(=O)c1ccc2n1CCN(C)C21CCN(C(=O)c2ccc(S(=O)(=O)C(F)F)cc2)CC1` [Compound 268]: over 5000 nM. For `COCCN1CCn2cccc2C12CCN(C(=O)c1ccc(OC(C)C)c(C)c1)CC2` [Compound 269], the IC50 is at most 2000 nM. As for `CC(C)Oc1ccc(C(=O)N2CCC3(CC2)NC(C)(C)Cn2c(C(=O)C(F)(F)F)ccc23)cc1Cl` [Compound 270], the IC50 was at most 2000 nM.

On to `CN1CCn2c(C(=O)C(F)(F)F)ccc2C12CCN(C(=O)c1ccc(Cl)c(O)c1)CC2` [Compound 271], for which the IC50 is over 5000 nM. Next, `CN1CCn2c(C(F)(F)F)ccc2C12CCN(C(=O)c1ccccc1OC(F)(F)F)CC2` [Compound 272]: 2000 to 5000 nM.

Turning to `CC(C)Oc1ccc(C(=O)N2CCC3(CC2)NCCn2c(C(F)(F)F)ccc23)cc1` [Compound 273], the half-inhibitory concentration (IC50) fell in the range of 2000 to 5000 nM. As to `CN1CCn2c(C(=O)C(C)(C)C)ccc2C12CCN(C(=O)c1ccc(S(=O)(=O)NC3CC3)cc1)CC2` [Compound 274], the IC50 was at most 2000 nM. As for `CCCCc1ccc(C(=O)N2CCC3(CC2)c2ccc(Cl)n2CCN3C)cc1` [Compound 275], the IC50 lay in the range of 2000 to 5000 nM.

In the case of `COc1ccc(C(=O)N2CCC3(CC2)c2ccc(C(=O)C4(C)CC4)n2CCN3C)cc1C` [Compound 276], the IC50 was at most 2000 nM. In the case of `CC(=O)c1ccc2n1CC(C)(C)NC21CCN(C(=O)c2ccc(OC(C)C)c(Cl)c2)CC1` [Compound 277], the IC50 is at most 2000 nM.

Take `CCc1ccc(C(=O)N2CCC3(CC2)c2ccc(C(C)=O)n2CCN3C)cc1` [Compound 278]: the IC50 was over 5000 nM. For the molecule `Cc1cc(C(=O)N2CCC3(CC2)c2ccc(CC(F)(F)F)n2CCN3C)ccc1OC(C)C` [Compound 279], the IC50 is at most 2000 nM. Consider `Cc1cc(C(=O)N2CCC3(CC2)NCC(C)(C)n2c(C(F)(F)F)ccc23)ccc1OC(C)C` [Compound 280], for which the IC50 was at most 2000 nM. The same measure for `CN1CCn2c(C(F)(F)F)ccc2C12CCN(C(=O)c1cccc3cccnc13)CC2` [Compound 281]: at most 2000 nM.

On to `COc1ccc(C(=O)N2CCC3(CC2)c2ccc(C(=O)C4(C)CC4)n2CCN3C)cc1C(F)(F)F` [Compound 282], for which the IC50 is at most 2000 nM. Take `CNS(=O)(=O)c1ccc(C(=O)N2CCC3(CC2)NCCn2c(C(F)(F)F)ccc23)cc1C` [Compound 283]: the IC50 was 2000 to 5000 nM. The same measure for `CC(C)CCOc1ccc(C(=O)N2CCC3(CC2)NCC(C)n2c(C(=O)C(F)(F)F)ccc23)cc1` (stereo not shown) [Compound 284]: at most 2000 nM. The same measure for `CC(=O)c1ccc2n1CCN(C)C21CCN(C(=O)c2ccc(OC(C)C)c(C#N)c2)CC1` [Compound 285]: 2000 to 5000 nM; for `CC(=O)c1ccc2n1CC(C)(C)NC21CCN(C(=O)c2ccc(OC(C)C)cc2F)CC1` [Compound 286]: at most 2000 nM; for `CN1CCn2c(C(=O)C(F)(F)F)ccc2C12CCN(C(=O)c1ccc(-c3ccccc3)c(O)c1)CC2` [Compound 287]: 2000 to 5000 nM.

Take `COc1cc(C(=O)N2CCC3(CC2)c2ccc(C(=O)C(F)(F)F)n2CCN3C)ccc1COCCC(F)(F)F` [Compound 288]: the IC50 is at most 2000 nM.

On to `CN1CCn2c(ccc2C(F)(F)C(F)(F)F)C12CCN(C(=O)c1ccc(S(=O)(=O)NC3CC3)cc1)CC2` [Compound 289], for which the IC50 is at most 2000 nM. Next, `CC(C)c1ccc(C(=O)N2CCC3(CC2)c2ccc(C(=O)C(F)(F)F)n2CCN3C)cc1` [Compound 290]: at most 2000 nM; `Cc1cc(C(=O)N2CCC3(CC2)c2ccc(C(=O)C(F)(F)F)n2CCN3C)cnc1OC(C)C` [Compound 291]: at most 2000 nM; `CCCc1ccc(C(=O)N2CCC3(CC2)c2ccc(C(C)=O)n2CCN3C)cc1` [Compound 292]: over 5000 nM.

As to `CCC(c1ccc(F)cc1)n1cc(C(=O)N2CCC3(CC2)c2ccc(C(F)(F)F)n2CCN3C)nn1` (stereo not shown) [Compound 293], the IC50 was over 5000 nM. Turning to `CC[C@@H](C)Oc1ccc(C(=O)N2CCC3(CC2)c2ccc(Cl)n2CCN3C)cc1OC` [Compound 294], the IC50 was at most 2000 nM. Next, `Cc1cc(C(=O)N2CCC3(CC2)c2ccc(C(=O)C(F)(F)F)n2CCN3C)ccc1-c1ccn(C)n1` [Compound 295]: over 5000 nM; `CCOC(=O)N1CCn2c(C#N)ccc2C12CCN(C(=O)c1ccc(OC(C)C)c(Cl)c1)CC2` [Compound 296]: at most 2000 nM; `CCOc1ncccc1C(=O)N1CCC2(CC1)c1ccc(C(F)(F)F)n1CCN2C` [Compound 297]: at most 2000 nM.

With `CCS(=O)(=O)c1ccc(C(=O)N2CCC3(CC2)c2ccc(C(F)(F)F)n2CCN3C)cc1C` [Compound 298], the IC50 was at most 2000 nM.

As to `COc1cc(C(=O)N2CCC3(CC2)c2ccc(C(F)(F)C(F)(F)F)n2CCN3C)ccc1OC(C)(C)C` [Compound 299], the IC50 is at most 2000 nM. The same measure for `C[C@H]1Cn2c(C(=O)C(F)(F)F)ccc2C2(CCN(C(=O)c3ccc(S(=O)(=O)C(C)(C)C)cc3)CC2)N1C` [Compound 300]: at most 2000 nM. Regarding `CN1CCn2c(Cl)ccc2C12CCN(C(=O)c1ccc(C3(O)CCCC3)cc1)CC2` [Compound 301], the concentration for half-maximal inhibition (IC50) is over 5000 nM. Next, `CN1CCn2c(ccc2S(C)(=O)=O)C12CCN(C(=O)c1ccc(C3CCCCC3)cc1)CC2` [Compound 302]: 2000 to 5000 nM; `Cc1cc(C(=O)N2CCC3(CC2)c2ccc(C(=O)C(F)(F)F)n2CCN3C)ccc1-c1c[nH]nc1C(F)(F)F` [Compound 303]: over 5000 nM; `CC(=O)c1ccc2n1CCN(C)C21CCN(C(=O)c2ccc(-c3ccccc3)c(C)c2)CC1` [Compound 304]: at most 2000 nM. For the molecule `CN1CCn2c(C(F)(F)F)ccc2C12CCN(C(=O)c1cccnc1N1CCCC1)CC2` [Compound 305], the IC50 was at most 2000 nM. The same measure for `COc1cc(C(=O)N2CCC3(CC2)N[C@@H](C)Cn2c(C(F)(F)F)ccc23)ccc1OC(C)C` [Compound 306]: 2000 to 5000 nM; for `Cc1cc(C(=O)N2CCC3(CC2)c2ccc(C(F)(F)F)n2CCN3C2CC2)ccc1C(C)(C)O` [Compound 307]: at most 2000 nM.

In the case of `Cc1cc(C(=O)N2CCC3(CC2)N[C@H](C)Cn2c(C(F)(F)F)ccc23)ccc1OC(C)C` [Compound 308], the IC50 is at most 2000 nM. Next, `CC(=O)c1ccc2n1CCN(C)C21CCN(C(=O)c2ccc(C3(O)CCCC3)cc2)CC1` [Compound 309]: over 5000 nM; `CC1CCN(S(=O)(=O)c2ccc(C(=O)N3CCC4(CC3)c3ccc(Cl)n3CCN4C)cc2)CC1` [Compound 310]: over 5000 nM; `Cc1cc(C(=O)N2CCC3(CC2)c2ccc(C(=O)C(F)(F)F)n2C(C)CN3C)ccc1C(C)(C)O` (stereo not shown) [Compound 311]: at most 2000 nM. The same measure for `COc1ccc(C(=O)N2CCC3(CC2)NC(C)(C)Cn2c(C(=O)C(F)(F)F)ccc23)c(F)c1` [Compound 312]: at most 2000 nM; for `CN1CCn2c(C(F)(F)F)cc(F)c2C12CCN(C(=O)c1ccc(CC(C)(C)O)cc1)CC2` [Compound 313]: at most 2000 nM. Next, `COc1ccc(C(=O)N2CCC3(CC2)c2ccc(C(=O)C(C)(C)C)n2CCN3C)cc1C` [Compound 314]: at most 2000 nM; `COc1cc(C(=O)N2CCC3(CC2)c2ccc(C(=O)C(F)(F)F)n2CCN3C)ccc1OC(C)C` [Compound 315]: at most 2000 nM; `C=C(C)c1ccc(C(=O)N2CCC3(CC2)c2ccc(C(F)(F)F)n2CCN3C)cc1C` [Compound 316]: at most 2000 nM. Consider `COc1cc(C(=O)N2CCC3(CC2)c2ccc(C(F)(F)F)n2CCN3C2CCC2)ccc1OC(C)C` [Compound 317], for which the IC50 was in the range of 2000 to 5000 nM. The same measure for `Cc1cc(C(=O)N2CCC3(CC2)NC(C)(C)Cn2c(C(=O)C(F)(F)F)ccc23)ccc1O` [Compound 318]: at most 2000 nM; for `Cc1ccc(C(=O)N2CCC3(CC2)c2ccc(C(F)(F)F)n2CCN3C)cc1` [Compound 319]: over 5000 nM.
